Here are results for one molecule from ChEMBL document CHEMBL3864126, “Identification of SENP1 inhibitors through in silico screening and rational drug design” (Eur J Med Chem, 2016).

The assay concerns the target T1, Sentrin-specific protease 1 (Homo sapiens, UniProt Q9P0U3).
T1 sequence (Q9P0U3 whole entry): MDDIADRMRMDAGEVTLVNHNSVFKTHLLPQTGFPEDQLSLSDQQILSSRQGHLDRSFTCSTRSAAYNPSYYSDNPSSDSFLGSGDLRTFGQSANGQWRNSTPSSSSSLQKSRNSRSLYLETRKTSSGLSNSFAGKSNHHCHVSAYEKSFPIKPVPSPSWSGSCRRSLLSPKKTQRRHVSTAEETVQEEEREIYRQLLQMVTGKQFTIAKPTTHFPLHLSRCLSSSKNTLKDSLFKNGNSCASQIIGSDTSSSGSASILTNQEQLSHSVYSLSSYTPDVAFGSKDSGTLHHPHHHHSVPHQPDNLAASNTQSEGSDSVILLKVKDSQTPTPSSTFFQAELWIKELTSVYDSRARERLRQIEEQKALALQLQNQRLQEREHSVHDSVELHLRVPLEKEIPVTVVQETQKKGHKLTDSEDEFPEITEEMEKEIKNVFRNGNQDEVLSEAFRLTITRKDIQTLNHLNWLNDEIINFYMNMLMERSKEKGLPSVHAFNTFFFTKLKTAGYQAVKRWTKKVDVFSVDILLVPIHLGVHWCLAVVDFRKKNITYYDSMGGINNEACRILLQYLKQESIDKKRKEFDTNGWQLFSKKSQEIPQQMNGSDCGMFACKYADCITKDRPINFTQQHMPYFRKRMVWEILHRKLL
Description: Inhibition of SENP1 catalytic domain (419 to 644 residues) (unknown origin) expressed in Escherichia coli BL21 (DE3) assessed as reduction in deSUMOylation preincubated for 10 mins followed by addition of RanGAP-SUMO as substrate measured after 25 mins by coomassie staining-based SDS-PAGE analysis.

SMILES strings stand for the structures.

For `O=C(N/N=C/C1CCCCC1)c1cc(Cl)ccc1O`, the IC50 – broadly, the concentration needed to halve the response being measured – amounted to 14 µM.
